Values joined by “and” are separate entries in the source; they are usually repeats but may differ in a detail not shown here. Identical values can stand only once. Results filed as inconclusive are left out.
System: MX-1 breast xenograft, nude mice, tumor weight T/C
Test: NCI In Vivo Anticancer Drug Screen. Data for tumor model Human Mammary Carcinoma MX-1 Xenograft (intrarenal inoculation) in NU/NU Swiss (nude) mice
Conditions: endpoint: mean tumor weight change, higher = larger tumour
In short: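 Compound dosed to mice with transplantable tumor; vehicle group as control. Endpoint survival or tumour size, reported as T/C.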

[1] = dose: 300.0 mg/kg/injection, schedule: Q04DX003 (sc), vehicle: Klucel (hydroxypropylcellulose) (HPC)
[2] = dose: 300.0 mg/kg/injection, schedule: Q04DX003 (sc), vehicle: saline with Tween-80
[3] = dose: 600.0 mg/kg/injection, schedule: Q04DX003 (sc), vehicle: saline with Tween-80
[4] = dose: 2400.0 mg/kg/injection, schedule: Q04DX003 (sc), vehicle: saline with Tween-80

In the case of O=c1ssc(=Nc2ccccc2)n1-c1ccccc1, the T/C [1] is reported as 65 % of control, the T/C (dose: 600.0 mg/kg/injection, schedule: Q04DX003 (sc), vehicle: Klucel (hydroxypropylcellulose) (HPC)) is reported as 95 % of control and the T/C (dose: 1200.0 mg/kg/injection, schedule: Q04DX003 (sc), vehicle: Klucel (hydroxypropylcellulose) (HPC)) is reported as 112 % of control. The T/C (dose: 2400.0 mg/kg/injection, schedule: Q04DX003 (sc), vehicle: Klucel (hydroxypropylcellulose) (HPC)) was 106 % of control.

With Cc1ccc(NN=O)nc1 the T/C (dose: 18.7 mg/kg/injection, schedule: Q04DX003 (ip), vehicle: water) was 16 % of control and the T/C (dose: 37.5 mg/kg/injection, schedule: Q04DX003 (ip), vehicle: water) was 8 % of control.

O=C1N[C@@H]([C@H]2CC[C@H](Cl)CN2)C(=O)N[C@H]1[C@H]1CC[C@H](Cl)CN1 was tested, and the T/C (dose: 0.62 mg/kg/injection, schedule: Q01DX010 (sc), vehicle: water) was 110 % of control, the T/C (dose: 2.5 mg/kg/injection, schedule: Q01DX010 (sc), vehicle: water) was 72 % of control and 73 % of control and the T/C (dose: 2.5 mg/kg/injection, schedule: Q04DX003 (sc), vehicle: water) was 11 % of control. For the same compound, the T/C (dose: 5.0 mg/kg/injection, schedule: Q01DX010 (sc), vehicle: water) was 30 % of control and 46 % of control, the T/C (dose: 5.0 mg/kg/injection, schedule: Q04DX003 (sc), vehicle: water) was -62 % of control and the T/C (dose: 10.0 mg/kg/injection, schedule: Q04DX003 (sc), vehicle: water) was -100 % of control. For the same compound, the T/C (dose: 20.0 mg/kg/injection, schedule: Q04DX003 (sc), vehicle: water) was -100 % of control.

With O=C(O)C1(C(=O)O)CCC1.[NH2-].[NH2-].[Pt+2] the T/C (dose: 12.5 mg/kg/injection, schedule: Q01DX010 (sc), vehicle: dextrose) was 2 % of control and 11 % of control and the T/C (dose: 50.0 mg/kg/injection, schedule: Q01DX010 (sc), vehicle: dextrose) was -87 % of control and -75 % of control.

With O=NNc1ccccn1 the T/C (dose: 1.0 mg/kg/injection, schedule: Q01DX010 (sc), vehicle: saline) was 78 % of control, the T/C (dose: 2.0 mg/kg/injection, schedule: Q01DX010 (sc), vehicle: saline) was 86 % of control and the T/C (dose: 3.13 mg/kg/injection, schedule: Q01DX010 (sc), vehicle: saline) was 20 % of control. For the same compound, the T/C (dose: 4.0 mg/kg/injection, schedule: Q01DX010 (sc), vehicle: saline) was 163 % of control, the T/C (dose: 6.25 mg/kg/injection, schedule: Q01DX010 (sc), vehicle: saline) was 50 % of control and 72 % of control and the T/C (dose: 8.0 mg/kg/injection, schedule: Q04DX003 (sc), vehicle: saline) was 103 % of control. For the same compound, the T/C (dose: 25.0 mg/kg/injection, schedule: Q01DX010 (sc), vehicle: saline) was 1 % of control and the T/C (dose: 64.0 mg/kg/injection, schedule: Q01DX010 (sc), vehicle: saline) was -87 % of control.

With CCCCCCCCCCCC(=O)NC1CC(O[C@H]2C[C@](O)(C(=O)CO)Cc3c(O)c4c(c(O)c32)C(=O)c2c(OC)cccc2C4=O)OC(C)C1O (stereo partly specified) the T/C (dose: 100.0 mg/kg/injection, schedule: Q01DX010 (sc), vehicle: water) was 59 % of control, the T/C (dose: 200.0 mg/kg/injection, schedule: Q01DX010 (sc), vehicle: water) was 97 % of control and the T/C (dose: 400.0 mg/kg/injection, schedule: Q01DX010 (sc), vehicle: water) was 53 % of control.

O=C(Nc1cccc2c(OC(=O)C(Cl)Cl)c(N=Nc3ccc(S(=O)(=O)Nc4nccs4)cc3)cc(N=Nc3ccc(S(=O)(=O)Nc4nccs4)cc3)c12)C(Cl)Cl (tested in a mixture with another compound) was tested, and the T/C [2] was 111 % of control, the T/C [3] was 103 % of control and the T/C (dose: 1200.0 mg/kg/injection, schedule: Q04DX003 (sc), vehicle: saline with Tween-80) was 109 % of control. For the same compound, the T/C [4] was 109 % of control.

With CO[C@@]12[C@@H]3N[C@@H]3CN1C1=C(C(=O)C(NCCc3ccccn3)=C(C)C1=O)[C@@H]2COC(N)=O the T/C (dose: 6.25 mg/kg/injection, schedule: Q04DX003 (ip), vehicle: saline with Tween-80) was -84 % of control, the T/C (dose: 12.5 mg/kg/injection, schedule: Q04DX003 (ip), vehicle: saline with Tween-80) was -21 % of control and the T/C (dose: 25.0 mg/kg/injection, schedule: Q04DX003 (ip), vehicle: saline with Tween-80) was -95 % of control.

O=S(=O)(O)O was tested, and the T/C (dose: 75.0 mg/kg/injection, schedule: Q04DX003 (sc), vehicle: Klucel (hydroxypropylcellulose) (HPC)) was 86 % of control, the T/C (dose: 150.0 mg/kg/injection, schedule: Q04DX003 (sc), vehicle: Klucel (hydroxypropylcellulose) (HPC)) was 94 % of control and the T/C [1] was 85 % of control.

In the case of CCOC(=O)C(CC(C)C)NC(=O)C(Cc1ccc(N(CCCl)CCCl)cc1)NC(C)=O (stereo unspecified), the T/C (dose: 37.5 mg/kg/injection, schedule: Q04DX003 (sc), vehicle: saline with Tween-80) is reported as 50 % of control and the T/C [3] is reported as -97 % of control and -96 % of control.

With CCCCOC(=O)/C=C(\Br)C(=O)OCCCC the T/C (dose: 50.0 mg/kg/injection, schedule: Q01DX010 (sc), vehicle: saline with Tween-80) was 102 % of control, the T/C (dose: 100.0 mg/kg/injection, schedule: Q01DX010 (sc), vehicle: saline with Tween-80) was 68 % of control and the T/C (dose: 200.0 mg/kg/injection, schedule: Q01DX010 (sc), vehicle: saline with Tween-80) was 191 % of control. For the same compound, the T/C (dose: 400.0 mg/kg/injection, schedule: Q01DX010 (sc), vehicle: saline with Tween-80) was 205 % of control.

CC1CC(C)CC(C)C(O)/C(C#N)=C/C=C/CC(C2CCCC2C(=O)O)OC(=O)CC(O)C(C)C1 (stereo unspecified) was tested, and the T/C (dose: 6.0 mg/kg/injection, schedule: Q04DX003 (sc), vehicle: Klucel (hydroxypropylcellulose) (HPC)) was 87 % of control and the T/C (dose: 12.0 mg/kg/injection, schedule: Q04DX003 (sc), vehicle: Klucel (hydroxypropylcellulose) (HPC)) was 79 % of control.

For Cc1cc2nc3[nH]c4ccccc4c3nc2cc1C, the T/C (dose: 100.0 mg/kg/injection, schedule: Q01DX010 (sc), vehicle: saline) was 92 % of control, the T/C (dose: 200.0 mg/kg/injection, schedule: Q01DX010 (sc), vehicle: saline) was 103 % of control and the T/C (dose: 400.0 mg/kg/injection, schedule: Q01DX010 (sc), vehicle: saline) was 63 % of control. The T/C (dose: 800.0 mg/kg/injection, schedule: Q01DX010 (sc), vehicle: saline) was 69 % of control.

For COC1/C=C/C=C(/C)Cc2cc(O)c(Cl)c(c2)N(C)C(=O)CC(OC(=O)C(C)C)C2(C)OC2C(C)C2CC1(O)NC(=O)O2 (stereo unspecified), the T/C (dose: 1.0 mg/kg/injection, schedule: Q04DX003 (sc), vehicle: saline + alcohol) was 95 % of control, the T/C (dose: 2.0 mg/kg/injection, schedule: Q04DX003 (sc), vehicle: saline + alcohol) was 78 % of control and 87 % of control (2×) and the T/C (dose: 16.0 mg/kg/injection, schedule: Q04DX003 (sc), vehicle: saline + alcohol) was 3 % of control and -8 % of control.

CCCC(=O)O.CCCC(=O)O.CCCC(=O)O.CCCC(=O)O.[Rh].[Rh] was tested, and the T/C (dose: 2.0 mg/kg/injection, schedule: Q04DX003 (sc), vehicle: suspension in saline) was 99 % of control, the T/C (dose: 4.0 mg/kg/injection, schedule: Q04DX003 (sc), vehicle: suspension in saline) was 115 % of control and the T/C (dose: 8.0 mg/kg/injection, schedule: Q04DX003 (sc), vehicle: suspension in saline) was 80 % of control.

For Cc1cc(O)c(N=Nc2ccc(C(=O)O)cc2)cc1C, the T/C [2] was 123 % of control, the T/C [3] was 124 % of control and the T/C [4] was 92 % of control.

With c1cc[c]([Sn]([NH]c2ncnc3[nH]cnc23)([NH]c2ncnc3[nH]cnc23)[c]2ccccc2)cc1 the T/C (dose: 75.0 mg/kg/injection, schedule: Q04DX003 (sc), vehicle: suspension in saline) was 76 % of control, the T/C (dose: 150.0 mg/kg/injection, schedule: Q04DX003 (sc), vehicle: suspension in saline) was 109 % of control and the T/C (dose: 300.0 mg/kg/injection, schedule: Q04DX003 (sc), vehicle: suspension in saline) was 111 % of control. The T/C (dose: 600.0 mg/kg/injection, schedule: Q04DX003 (sc), vehicle: suspension in saline) was 76 % of control.

Cc1ccc2c(c1)N=C(Nc1ccccc1)N=S2(C)=O (stereo unspecified) was tested, and the T/C (dose: 100.0 mg/kg/injection, schedule: Q04DX003 (sc), vehicle: saline with Tween-80) was 79 % of control, the T/C (dose: 200.0 mg/kg/injection, schedule: Q04DX003 (sc), vehicle: saline with Tween-80) was 78 % of control and the T/C (dose: 400.0 mg/kg/injection, schedule: Q04DX003 (sc), vehicle: saline with Tween-80) was 75 % of control. For the same compound, the T/C (dose: 800.0 mg/kg/injection, schedule: Q04DX003 (sc), vehicle: saline with Tween-80) was 60 % of control.

NC(Cn1ccc(=O)c(O)c1)C(=O)O (stereo unspecified) was tested, and the T/C (dose: 300.0 mg/kg/injection, schedule: Q04DX003 (sc), vehicle: saline) was 72 % of control, the T/C (dose: 1200.0 mg/kg/injection, schedule: Q04DX003 (sc), vehicle: saline) was 88 % of control and the T/C (dose: 2400.0 mg/kg/injection, schedule: Q04DX003 (sc), vehicle: saline) was 88 % of control.

In the case of CC1=NN(c2cccc(S(=O)(=O)O)c2)C(=O)C1N=Nc1cc(Cl)cc(S(=O)(=O)O)c1O.CC1=NN(c2cccc(S(=O)(=O)O)c2)C(=O)C1N=Nc1cc(Cl)cc(S(=O)(=O)O)c1O.[Cr] (stereo unspecified), the T/C (dose: 150.0 mg/kg/injection, schedule: Q04DX003 (ip), vehicle: saline) is reported as 151 % of control, the T/C (dose: 300.0 mg/kg/injection, schedule: Q04DX003 (ip), vehicle: saline) is reported as 94 % of control and the T/C (dose: 600.0 mg/kg/injection, schedule: Q04DX003 (ip), vehicle: saline) is reported as 50 % of control.

— PubChem BioAssay AID296 (DTP/NCI, 2004)
